Where two headings read alike, the source gives them in different places.
Tests used:
[1] = test system: HIV-1 NL4-3 gag A364V virus; assay: microbe, parasite or virus in culture; format: cell-based
Protocol: (§1) MT-2 cells and 293T cells were obtained from the NIH AIDS Research and Reference Reagent Program. MT-2 cells were propagated in RPMI 1640 media supplemented with 10% heat-inactivated fetal bovine serum, […]. The 293T cells were propagated in DMEM media supplemented with 10% heat-inactivated fetal bovine serum (FBS), 100 units/mL penicillin G and 100 μg/mL streptomycin. […] A recombinant NL4-3 virus, in which a section of the nef gene from NL4-3 was replaced with the Renilla luciferase gene, was used as a reference virus. In addition, residue Gag P373 was converted to P373S. […] Transfections were performed in 293T cells using LipofectAMINE PLUS from Invitrogen (Carlsbad, Calif.), according to manufacturer's instruction. The virus was titered in MT-2 cells using luciferase enzyme activity as a marker. Luciferase was quantitated using the Dual Luciferase kit from Promega (Madison, Wis.), with modifications to the manufacturer's protocol. The diluted Passive Lysis solution was pre-mixed with the re-suspended Luciferase Assay Reagent and the re-suspended Stop & Glo Substrate (2:1:1 ratio). Fifty (50) μL of the mixture was added to each aspirated well on assay plates and luciferase activity was measured immediately on a Wallac TriLux (Perkin-Elmer). Antiviral activities of inhibitors toward the recombinant virus were quantified by measuring luciferase activity in cells infected for 4-5 days with NLRluc recombinants in the presence serial dilutions of the inhibitor.
Both recombinant viruses were used as described above in the HIV cell culture assay for the NL4-3 virus.

[2] = test system: WT (wild-type HIV virus; recombinant NL4-3 virus); assay: microbe, parasite or virus in culture; format: cell-based, HIV-1
Protocol: as §1
WT refers to wild-type HIV virus. […]

[3] = Human immunodeficiency virus 1, NL43, MT2, read-out: A364V (EC50, uM), Table 1 regular screen, class symbol
[4] = Human immunodeficiency virus 1, NL43, MT2, read-out: WT (EC50, uM), Table 1 regular screen, class symbol
[5] = Human immunodeficiency virus 1, NL43, MT2, read-out: A364V (EC50, uM), Table 1 regular screen, MT-2 cells, luciferase readout
[6] = Human immunodeficiency virus 1, NL43, MT2, read-out: WT (EC50, uM), Table 1 regular screen, MT-2 cells, luciferase readout

SMILES	EC50 [1, 3] [µM]	EC50 [2, 4] [µM]	EC50 [1, 5] [µM]	EC50 [2, 6] [µM]
C=C(C)[C@@H]1CC[C@]2(NCC(=O)O)CC[C@]3(C)[C@H](CC[C@@H]4[C@@]5(C)CC=C(C6=CC[C@](CF)(C(=O)O)CC6)C(C)(C)[C@@H]5CC[C@]43C)[C@@H]12 [Example 28, (S)-4-((1R,3aS,5aR,5bR,7aR,11aS,11bR,13aR,13bR)-3a-((carboxymethyl)amino)-5a,5b, 8,8,11a-pentamethyl-1-(prop-1-en-2-yl)-2,3,3a,4,5,5a,5b,6,7,7a,8,11,11a,11b,12,13,13a,13b-octadecahydro-1H-cyclopenta[a]chrysen-9-yl)-1-(fluoromethyl)cyclohex-3-enecarboxylic acid]	> 0.05	> 0.05		
CC(C)[C@@H]1CC[C@]2(NCCN3CCS(=O)(=O)CC3)CC[C@]3(C)[C@H](CC[C@@H]4[C@@]5(C)CC=C(C6=CC[C@@](CF)(C(=O)O)CC6)C(C)(C)[C@@H]5CC[C@]43C)[C@@H]12 [Example 22, (R)-4-((1S,3aS,5aR,5bR,7aR,11aS,11bR,13aR,13bR)-3a-((2-(1,1-dioxidothiomorpholino)ethyl)amino)-1-isopropyl-5a,5b, 8,8,11a-pentamethyl-2,3,3a,4,5,5a,5b,6,7,7a,8,11,11a,11b,12,13,13a,13b-octadecahydro-1H-cyclopenta[a]chrysen-9-yl)-1-(fluoromethyl)cyclohex-3-enecarboxylic acid]			0.0513	0.00134
C=C(C)[C@@H]1CC[C@]2(NCCN3CCCC3=O)CC[C@]3(C)[C@H](CC[C@@H]4[C@@]5(C)CC=C(C6=CC[C@](CF)(C(=O)O)CC6)C(C)(C)[C@@H]5CC[C@]43C)[C@@H]12 [Example 20, (S)-1-(fluoromethyl)-4-((1R,3aS,5aR,5bR,7aR,11aS,11bR,13aR,13bR)-5a,5b, 8,8,11a-pentamethyl-3a-((2-(2-oxopyrrolidin-1-yl)ethyl)amino)-1-(prop-1-en-2-yl)-2,3,3a,4,5,5a,5b,6,7,7a,8,11,11a,11b,12,13,13a,13b-octadecahydro-1H-cyclopenta[a]chrysen-9-yl)cyclohex-3-enecarboxylic acid]			0.129	0.00253
C=C(C)[C@@H]1CC[C@]2(NCCC3CCS(=O)(=O)CC3)CC[C@]3(C)[C@H](CC[C@@H]4[C@@]5(C)CC=C(C6=CC[C@](CF)(C(=O)O)CC6)C(C)(C)[C@@H]5CC[C@]43C)[C@@H]12 [Example 7, (S)-4-((1R,3aS,5aR,5bR,7aR,11aS,11bR,13aR,13bR)-3a-((2-(1,1-dioxidotetrahydro-2H-thiopyran-4-yl)ethyl)amino)-5a,5b,8,8,11a-pentamethyl-1-(prop-1-en-2-yl)-2,3,3a,4,5,5a,5b,6,7,7a,8,11,11a,11b,12,13,13a,13b-octadecahydro-1H-cyclopenta[a]chrysen-9-yl)-1-(fluoromethyl)cyclohex-3-enecarboxylic acid]	> 0.05	< 0.05		
C=C(C)[C@@H]1CC[C@]2(NCCC(C)(C)O)CC[C@]3(C)[C@H](CC[C@@H]4[C@@]5(C)CC=C(C6=CC[C@](CF)(C(=O)O)CC6)C(C)(C)[C@@H]5CC[C@]43C)[C@@H]12 [Example 2-1, (S)-1-(fluoromethyl)-4-((1R,3aS,5aR,5bR,7aR,11aS,11bR,13aR,13bR)-3a-((3-hydroxy-3-methylbutyl)amino)-5a,5b,8,8,11a-pentamethyl-1-(prop-1-en-2-yl)-2,3,3a,4,5,5a,5b,6,7,7a,8,11,11a,11b,12,13,13a,13b-octadecahydro-1H-cyclopenta[a]chrysen-9-yl)cyclohex-3-enecarboxylic acid]	> 0.05	< 0.05		
C=C(C)[C@@H]1CC[C@]2(NCC[C@]3(O)CC[C@](C)(O)CC3)CC[C@]3(C)[C@H](CC[C@@H]4[C@@]5(C)CC=C(C6=CC[C@](CF)(C(=O)O)CC6)C(C)(C)[C@@H]5CC[C@]43C)[C@@H]12 [Example 2-16, (S)-4-((1R,3aS,5aR,5bR,7aR,11aS,11bR,13aR,13bR)-3a-((2-((trans)-1,4-dihydroxy-4-methylcyclohexyl)ethyl)amino)-5a,5b,8,8,11a-pentamethyl-1-(prop-1-en-2-yl)-2,3,3a,4,5,5a,5b,6,7,7a,8,11,11a,11b,12,13,13a,13b-octadecahydro-1H-cyclopenta[a]chrysen-9-yl)-1-(fluoromethyl)cyclohex-3-enecarboxylic acid]			0.0571	0.0021
C=C(C)[C@@H]1CC[C@]2(NCCN3CCN(C(C)=O)C(C)(C)C3=O)CC[C@]3(C)[C@H](CC[C@@H]4[C@@]5(C)CC=C(C6=CC[C@](CF)(C(=O)O)CC6)C(C)(C)[C@@H]5CC[C@]43C)[C@@H]12 [Example 2-27, (S)-4-((1R,3aS,5aR,5bR,7aR,11aS,11bR,13aR,13bR)-3a-((2-(4-acetyl-3,3-dimethyl-2-oxopiperazin-1-yl)ethyl)amino)-5a,5b, 8,8,11a-pentamethyl-1-(prop-1-en-2-yl)-2,3,3a,4,5,5a,5b,6,7,7a,8,11,11a,11b,12,13,13a,13b-octadecahydro-1H-cyclopenta[a]chrysen-9-yl)-1-(fluoromethyl)cyclohex-3-enecarboxylic acid]			0.0201	0.00577
C=C(C)[C@@H]1CC[C@]2(NC(=O)CC3CCOCC3)CC[C@]3(C)[C@H](CC[C@@H]4[C@@]5(C)CC=C(C6=CC[C@](CF)(C(=O)O)CC6)C(C)(C)[C@@H]5CC[C@]43C)[C@@H]12 [Example 8, (S)-1-(fluoromethyl)-4-((1R,3aS,5aR,5bR,7aR,11aS,11bR,13aR,13bR)-5a,5b,8,8,11a-pentamethyl-1-(prop-1-en-2-yl)-3a-(2-(tetrahydro-2H-pyran-4-yl)acetamido)-2,3,3a,4,5,5a,5b,6,7,7a,8,11,11a,11b,12,13,13a,13b-octadecahydro-1H-cyclopenta[a]chrysen-9-yl)cyclohex-3-enecarboxylic acid]	> 0.05	> 0.05		
C=C(C)[C@@H]1CC[C@]2(NCC(=O)N3CCS(=O)(=O)CC3)CC[C@]3(C)[C@H](CC[C@@H]4[C@@]5(C)CC=C(C6=CC[C@](CF)(C(=O)O)CC6)C(C)(C)[C@@H]5CC[C@]43C)[C@@H]12 [Example 29, (S)-4-((1R,3aS,5aR,5bR,7aR,11aS,11bR,13aR,13bR)-3a-((2-(1,1-dioxidothiomorpholino)-2-oxoethyl)amino)-5a,5b,8,8,11a-pentamethyl-1-(prop-1-en-2-yl)-2,3,3a,4,5,5a,5b,6,7,7a,8,11,11a,11b,12,13,13a,13b-octadecahydro-1H-cyclopenta[a]chrysen-9-yl)-1-(fluoromethyl)cyclohex-3-enecarboxylic acid]	> 0.05	< 0.05		
C=C(C)[C@@H]1CC[C@]2(NCC[C@]3(O)CC[C@@](C)(O)CC3)CC[C@]3(C)[C@H](CC[C@@H]4[C@@]5(C)CC=C(C6=CC[C@](CF)(C(=O)O)CC6)C(C)(C)[C@@H]5CC[C@]43C)[C@@H]12 [Example 2-18, (S)-4-((1R,3aS,5aR,5bR,7aR,11aS,11bR,13aR,13bR)-3a-((2-((cis)-1,4-dihydroxy-4-methylcyclohexyl)ethyl)amino)-5a,5b,8,8,11a-pentamethyl-1-(prop-1-en-2-yl)-2,3,3a,4,5,5a,5b,6,7,7a,8,11,11a,11b,12,13,13a,13b-octadecahydro-1H-cyclopenta[a]chrysen-9-yl)-1-(fluoromethyl)cyclohex-3-enecarboxylic acid]			0.854	0.00165
C=C(C)[C@@H]1CC[C@]2(NCC[C@]3(O)CC[C@H](S(C)(=O)=O)CC3)CC[C@]3(C)[C@H](CC[C@@H]4[C@@]5(C)CC=C(C6=CC[C@](CF)(C(=O)O)CC6)C(C)(C)[C@@H]5CC[C@]43C)[C@@H]12 [Example 2-21, (S)-1-(fluoromethyl)-4-((1R,3aS,5aR,5bR,7aR,11aS,11bR,13aR,13bR)-3a-((2-((trans)-1-hydroxy-4-(methylsulfonyl)cyclohexyl)ethyl)amino)-5a,5b, 8,8,11a-pentamethyl-1-(prop-1-en-2-yl)-2,3,3a,4,5,5a,5b,6,7,7a,8,11,11a,11b,12,13,13a,13b-octadecahydro-1H-cyclopenta[a]chrysen-9-yl)cyclohex-3-enecarboxylic acid]	> 0.05	< 0.05		
C=C(C)[C@@H]1CC[C@]2(NCCN3CCOC3=O)CC[C@]3(C)[C@H](CC[C@@H]4[C@@]5(C)CC=C(C6=CC[C@](CF)(C(=O)O)CC6)C(C)(C)[C@@H]5CC[C@]43C)[C@@H]12 [Example 2-24, (S)-1-(fluoromethyl)-4-((1R,3aS,5aR,5bR,7aR,11aS,11bR,13aR,13bR)-5a,5b,8,8,11a-pentamethyl-3a-((2-(2-oxooxazolidin-3-yl)ethyl)amino)-1-(prop-1-en-2-yl)-2,3,3a,4,5,5a,5b,6,7,7a,8,11,11a,11b,12,13,13a,13b-octadecahydro-1H-cyclopenta[a]chrysen-9-yl)cyclohex-3-enecarboxylic acid]			0.932	0.0053
